The text below walks through data of patent US8158593B2, “GPR17 modulators, method of screening and uses thereof” (Universita' degli Studi di Milano, priority 2004, dated 2012).

In data set [1] the test system is ischemic brain damage (MCAo). Kind of data set: Permanent middle cerebral artery occlusion (MCAo), brain infarct size by MRI. It is filed as in vivo, rat. The following applies: 400 ng/animal i.c.v. 48 and 24 h before and 10 min after MCAo. The procedure: Quantitative analysis of infarct size volume at 24 and 48 h after MCAo from rats receiving vehicle (C1, n=5) or Mtk (2 mg/kg intravenously, i.v., 10 min after MCAO; n=6); vehicle (C2, n=5) or AR-C (4.5 μg/animal intracerebroventricularly, i.c.v., 10 min after MCAo, n=5), vehicle (C3, n=5) or either oligo616 or scrambled-oligo (400 ng/animal, i.c.v., 48, 24 before and 10 min after MCAo, n=5). Data are expressed as percentage variation of infarct volume at 24 and 48 hours after MCAo compared to 2 h considered as 100% (§ p<0.05, # p<0.01 vs volume at 2 hr; *p <0.05, **p<0.01 vs corresponding control evaluated at the same time point). Induction of focal brain ischemia in the rat. Male Sprague-Dawley rats (Charles River) underwent permanent middle cerebral artery occlusion (MCAo) as previously described^28,29. […] AR-C was utilized here to simply test the involvement of GPR17 in brain ischemia, and, being a very polar molecule which is likely to very poorly permeate the blood brain barrier, it was administered i.c.v. Oligo-616 and oligo-scramble (400 ng in 5 μl of physiological solution) were administered i.c.v three times to each rat 48, 24 h before and 10 minutes after MCAo. Control groups received corresponding vehicle i.c.v. Magnetic Resonance Imaging analysis. […]

The subject of data set [2] is rGPR17 mRNA. Kind of data set: Antisense down-regulation of rGPR17 mRNA in HEK-293 cells (RT-PCR). Format: cell-based, rat. The following applies: 0.3 μM, added 16 and 40 h after transfection. The procedure: FIG. 4.1 Target sequences of synthesized anti-sense oligonucleotides on rGPR17 mRNA. (a) The various anti-sense sequences were named based on the rat coding sequence (GenBank accession No.: AC112062); black arrows indicate beginning and ending of the coding sequences. All oligonucleotides, including the “scrambled” sequence, were designed as described in Methods. All these sequences were tested in vitro on HEK-293 cells expressing rGPR17 in order to select the most appropriate oligonucleotides to be utilized for the in vivo studies. Two typical experiments are shown in (b), one aimed at assaying oligo616, oligo241 and oligo99, and the other one aimed at assaying oligoSTART and oligoEND, all in comparison with scrambled oligo sequences run in parallel. On day 2 after plating, cells were transfected with pcDNA3.1 containing the construct encoding for rGPR17 together with the neomycin resistance gene, here utilized as a reported gene. […] Twenty-four h after the last Fugene addition, RNA was extracted from cells as described in Methods, and the transcripts for both rGPR17 and the neomycin resistance gene determined as specific RT-PCR amplification products of 1079 and 357 bp, respectively, as indicated. […]

Data set [3] deals with T1, hGPR17 (Homo sapiens, UniProt Q13304). Kind of data set: [35S]GTPγS binding, HEK-293 cells expressing hGPR17. It is filed as biochemical. Further details: expressed in transfected cells; host or cells: HEK-293 (A4); pcDNA3.1. The following applies: HEK-293 cells transfected with hGPR17. The procedure: (§1) [^35S]GTPγS Binding Assay. 1321N1 cells, COS-7 and HEK-293 cells (control and transfected cells) were homogenized in 5 mM TRIS-HCl, 2 mM EDTA, pH 7.4 and centrifuged at 48000 g for 15 min at 4° C. The resulting pellets (plasma membranes) were washed in 50 mM TRIS-HCl, 10 mM MgCl2, pH 7.4 and stored at −80° C. until used. Measurement of nucleotide-stimulated [^35S]GTPγS binding to membranes of cells expressing the human or rat GPR17 receptor was performed as previously described^9-11.
T1 sequence (Q13304 29-367): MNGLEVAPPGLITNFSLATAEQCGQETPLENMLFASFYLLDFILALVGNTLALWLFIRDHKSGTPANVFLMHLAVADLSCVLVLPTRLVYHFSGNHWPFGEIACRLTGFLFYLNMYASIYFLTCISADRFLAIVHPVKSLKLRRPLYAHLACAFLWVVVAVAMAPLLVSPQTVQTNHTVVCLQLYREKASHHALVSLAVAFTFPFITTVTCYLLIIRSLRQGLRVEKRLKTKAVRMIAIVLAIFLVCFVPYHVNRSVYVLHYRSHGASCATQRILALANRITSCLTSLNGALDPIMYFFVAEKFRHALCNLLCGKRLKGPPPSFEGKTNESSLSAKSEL
To identify the endogenous ligand of GPR17, the cDNAs from human and rat GPR17 were cloned into the mammalian expression vector pcDNA3.1 and transfected in 1321N1, COS-7 and HEK-293 cells for functional characterization. GPR17 activation was assessed by testing the ability of exogenously-added ligands to increase [^35S]GTPγS binding to purified membranes obtained from transfected cells^9-11. […] The specificity of GPR17 responses were also challenged by assessing the ability of some purinergic and leukotriene receptor antagonists to counteract the increase of [^35S]GTPγS binding evoked by nucleotides and cys-LTs in 1321N1 cells expressing either the human or rat receptor. […]

In data set [4] the target is T2, rat GPR17 (Rattus norvegicus, UniProt Q09QM4).
T2 construct: expressed in transfected cells; host or cells: 1321N1; pcDNA3.1
T2 sequence (Q09QM4 whole entry): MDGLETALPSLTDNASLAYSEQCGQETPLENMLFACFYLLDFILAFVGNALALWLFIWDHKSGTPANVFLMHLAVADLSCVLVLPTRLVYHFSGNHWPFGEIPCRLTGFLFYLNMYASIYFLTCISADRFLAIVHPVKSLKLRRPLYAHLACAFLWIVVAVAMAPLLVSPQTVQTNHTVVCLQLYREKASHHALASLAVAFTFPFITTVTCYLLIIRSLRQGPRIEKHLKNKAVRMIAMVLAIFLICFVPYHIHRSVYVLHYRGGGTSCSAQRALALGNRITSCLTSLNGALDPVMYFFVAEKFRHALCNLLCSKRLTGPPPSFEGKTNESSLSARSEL
Kind of data set: [35S]GTPγS binding to membranes of 1321N1 cells expressing rat GPR17. It is filed as biochemical. The following applies: agonist; 1321N1 cells expressing rat GPR17. The procedure: as §1
To identify the endogenous ligand of GPR17, the cDNAs from human and rat GPR17 were cloned into the mammalian expression vector pcDNA3.1 and transfected in 1321N1, COS-7 and HEK-293 cells for functional characterization. GPR17 activation was assessed by testing the ability of exogenously-added ligands to increase [^35S]GTPγS binding to purified membranes obtained from transfected cells^9-11. […] The specificity of GPR17 responses were also challenged by assessing the ability of some purinergic and leukotriene receptor antagonists to counteract the increase of [^35S]GTPγS binding evoked by nucleotides and cys-LTs in 1321N1 cells expressing either the human or rat receptor. […] Because both P2Y^2,11,12 and CysLT receptors^3,13 may couple to G proteins of the Gi subfamily, to evaluate the involvement of this class of G-proteins, we preincubated 1321N1 cells expressing hGPR17 with pertussis toxin (PTX) which inactivates Gi proteins, prior to membrane preparation and [^35S]GTPγS binding.
Table 1. Potency of various ligands on [^35S]GTPγS binding to membranes obtaind from 1321N1 cells-transfected with human or rat GPR17. […] All data represent the mean of triplicate determinations from 4-9 independent experiments.

Data set [5] concerns the target T1, hGPR17. Kind of data set: Single cell calcium imaging in 1321N1 cells expressing hGPR17. It is filed as cell-based. The arrangement: expressed in transfected cells; host or cells: 1321N1 (A1, A5), COS-7 (A3, A6), HEK-293 (A4); pcDNA3.1. An excerpt:
Polychrome IV (TILL Photonics, Germany) was used as light source. Fura-2 and EGFP fluorescence images were collected with a PCO Super […] (Axon Instruments, Forest City, Calif.) and analyzed with the Axon Imaging Workbench 2.2 software (Axon Instruments).

Take “oligo616: antisense oligonucleotide designed on the sequence of rGPR17 mRNA, SEQ ID NO: 1, unmodified (antisense AACTGTACCGGGAGAAGGCC; unmodified DNA; listed as Rattus norvegicus)”: the “evolution of brain infarct size (MRI)” value in data set [1] is “markedly and significantly attenuated infarct size evolution”. In data set [2], the “attenuation of rGPR17 mRNA / in vitro expression of rGPR17” value is reported as “able to attenuate rGPR17 mRNA”.

As to `O=c1ccn([C@@H]2O[C@H](COP(=O)(O)OP(=O)(O)O)[C@@H](O)[C@H]2O)c(=O)[nH]1` [UDP], the “response in [35S]GTPγS binding” value in data set [3] is recorded as “induced responses”. This molecule also had an EC50 in data set [4] of 4.6 ± 0.6 µM. Besides, in data set [5], the “cells showing rise of [Ca2+]i” value is on record as “approximately 30%”.
